We go through 2 compounds from US5788964A, “Method for sensitization of cancer cells for killer cell mediated lysis” (Orion-Yhtyma Oy, priority 1996, dated 1998).

Experiment [1] concerns P815 cells. As to the kind of experiment: 51Cr assay, killing of P815 cells by LAK cells from DBA/N2 mice (Example 2). The settings on record: Mus musculus, P815, 4 h, read-out: P815 cells killed by LAK cells.
Description: (§1) For the generation of LAK cells, 2×10^6 /ml of spleen cells from female DBA/N2 mice were cultured for 5 days in RPMI-1640 medium supplemented with 10%FCS, 5×10^-5 M 2-mercaptoethanol and 500 U/mI of human recombinant interleukin-2 at 370C in humidified air containing 5% CO2.
Experiment [2] relates to P815 (NK resistant murine mastocytoma). Kind of experiment: LAK cell mediated cytotoxicity (51Cr release), rat LAK. The settings on record: for target cell lysis, effector cells pretreated (in words): LAK effectors pretreated; for lysis of treated targets by treated effectors (in words) / target cell lysis, target cells treated (in words): LAK effectors; for lysis of treated targets by treated effectors (in words): both treated; for target cell lysis, target cells treated (in words): target cells treated for 4 h prior to the cytotoxic reaction.
Description: Rat spleen cells were used as effector cells either without activation (NK cells), or after treatment with human IL-2 (LAK), or after stimulation with the Nb2 rat lymphoma in mixed cultures (CTL). The Yac-1 murine lymphoma was used as a target for NK cells, the P815 mastocytoma for LAK cells and Nb2 cells for CTL. […] Target cells were labeled with ^51 Cr for 1 hr, then washed. The specific ^51 Cr release was determined after 4 hours of incubation at 37° C., 5% CO2 (target/effector 1:25).
Target cells: P815 (NKresistant murine mastocytoma)
Effectar cells: Spleen cells of Fischer rats were cultured in medium
supplemented with 500 U/ml riL2 for 6 days at 37° C. and 5%

In experiment [3] the test system is Yac1 murine lymphoma. As to the kind of experiment: NK cell mediated cytotoxicity (51Cr release). The settings on record: for target cell lysis, effector cells pretreated (in words): NK effectors pretreated; for lysis of treated targets by treated effectors (in words) / target cell lysis, target cells treated (in words): NK effectors; for lysis of treated targets by treated effectors (in words): both treated; for target cell lysis, target cells treated (in words): target cells treated for 4 h prior to the cytotoxic reaction.
Description: (§2) Target cells were labeled with ^51 Cr for 1 hr, then washed. The specific ^51 Cr release was determined after 4 hours of incubation at 37° C., 5% CO2 (target/effector 1:25).
Target cells: Yac1 murine lymphoma
Effector cells: Spleen lymphocytes of female Fishner rats

Experiment [4] concerns P815 mastocytoma. Kind of experiment: Immunotherapy of P815 mastocytoma, drug by gavage and LAK cells (Example 6). The class given is in vivo, DBA/2 mice. The settings on record: 10 mg/kg/day by gavage, with or without LAK as labelled. Here is the method:
DBA/2 female mice were injected s. c. with 10^4 P815 tumor cells. […] Two days later 25×10^4 LAK cells were given i.p., LAK was injected three times more, four days apart. Drug treatment was maintained from day 14 until day 30.

The test system of experiment [5] is P815 tumor cells. Kind of experiment: Winn assay, pretreated P815 cells mixed with LAK cells 1:25 (Example 2). The settings on record: target:effector 1:25, s.c., groups of 4. The class given is in vivo, DBA/2 mice.
Description: as §1
Experiment [6] has as its system Nb2 rat lymphoma. Kind of experiment: Target cell destruction by cytolytic lymphocytes (CTL) generated in mixed cultures (51Cr release). The settings on record: for target cell lysis, effector cells pretreated (in words): CTL effectors pretreated; for lysis of treated targets by treated effectors (in words) / target cell lysis, target cells treated (in words): CTL effectors; for lysis of treated targets by treated effectors (in words): both treated; for target cell lysis, target cells treated (in words): target cells treated for 4 h prior to the cytotoxic reaction.
Description: as §2
Target cells: Nb2 rat lymphoma
Effector cells: Cytotoxic Tlymphocytes (CTL) generated in mixed cultures,
Responder: Spleen cells of Fischer rats. Stimulator: Nb2 cells (thymic

Experiment [7] deals with tumor estrogen receptors. The settings on record: background statement; cited from earlier work.
The test system of experiment [8] is P815 tumor. Kind of experiment: P815 tumor growth, drug in drinking water with or without LAK (Example 3). The class given is in vivo, mice. The settings on record: drinking water TX 100 μg/ml, TO 400 μg/ml; LAK 1:25 then weekly for 3 weeks.

Regarding `CC/C(=C(\c1ccccc1)c1ccc(OCCN(C)C)cc1)c1ccccc1` [TX, tamoxifen], the cytotoxicity at 1 µM in experiment [1] was found to be 52%. In experiment [2], the “target cell lysis, effector cells pretreated (in words)” value is “no such enhancing effect”; the “lysis of treated targets by treated effectors (in words)” value (“lysis of treated targets” for short) is listed as “lysed treated targets as efficiently as did nontreated effectors”; the “target cell lysis, target cells treated (in words)” value is “enhanced target cell lysis in a dose dependent fashion”. Further, in experiment [3], the “target cell lysis, effector cells pretreated (in words)” value is “no such enhancing effect”; the “lysis of treated targets” value is “lysed treated targets as efficiently as did nontreated effectors”; the “target cell lysis, target cells treated (in words)” value was “enhanced target cell lysis in a dose dependent fashion”. In experiment [4], the partial regression result is given as “one”. The “animals protected / survival” value in experiment [5] is given as “killed all the animals”. Also, in experiment [6], the “target cell lysis, effector cells pretreated (in words)” value was “no such enhancing effect”; the “lysis of treated targets” value is given as “lysed treated targets as efficiently as did nontreated effectors”; the “target cell lysis, target cells treated (in words)” value is listed as “enhanced target cell lysis in a dose dependent fashion”. Besides, the “inhibition of estrogen-induced growth” value in experiment [7] is “inhibit estrogen-induced growth by competitive antagonism of tumor estrogen receptors”.

For the compound `CN(C)CCOc1ccc(/C(=C(/CCCl)c2ccccc2)c2ccccc2)cc1` [TO, toremifene], in experiment [1], the cytotoxicity at 5 µM amounted to 51%. Further, in experiment [2], the “target cell lysis, effector cells pretreated (in words)” value is “no such enhancing effect”; the “lysis of treated targets” value is given as “lysed treated targets as efficiently as did nontreated effectors”; the “target cell lysis, target cells treated (in words)” value was “enhanced target cell lysis in a dose dependent fashion”. In experiment [3], the “target cell lysis, effector cells pretreated (in words)” value is listed as “no such enhancing effect”; the “lysis of treated targets” value is recorded as “lysed treated targets as efficiently as did nontreated effectors”; the “target cell lysis, target cells treated (in words)” value is “enhanced target cell lysis in a dose dependent fashion”. In addition, in experiment [8], the tumor free animals result is “one”. Besides, in experiment [4], the partial regression entry is given as “one”. The “animals protected / survival” value in experiment [5] is given as 1 of 4. Further, in experiment [6], the “target cell lysis, effector cells pretreated (in words)” value is “no such enhancing effect”; the “lysis of treated targets” value is listed as “lysed treated targets as efficiently as did nontreated effectors”; the “target cell lysis, target cells treated (in words)” value is on record as “enhanced target cell lysis in a dose dependent fashion”.
